Legend:
[1] = tested on: Entorhinal-hippocampal slices; experiment: Regeneration of entorhinal-hippocampal projection in lesioned organotypic slice culture (Dil tracing); assay type: cell-based, mice; conditions: slices treated with either PKA or ATP alone, 8 days
Protocol: (A) Organotypic culture of Entorhinal-hippocampal slices was prepared from 129X1/SvJJmsSlc (albino) mice postnatal day 5 and 6. Culture media were changed every 2 days. […], On the day in vitro (DIV) 10, the entorhinal-hippocampal projection was transected with sterile scalpel brade. The lesioned slices were cultured for 8 days with or without 1250 U/ml PKA and 100 μM ATP. On the DIV17, a small aliquot of Dil paste (Invitrogen) was applied on the entorhinal side of the transection. […] Location of lesion made at DIV 10 is indicated as a white dot line. (B) Intensity of Dil signal near the dentate gyrus was measured with ImageJ (version 1.42q, National institute of health, USA). Measured area (100 μm square) was indicated in (A) as a open white square. Intensity was indicated as a percentage of Dil signal in control (not lesioned). Experiment was repeated for 5 time in triplicate. Typical images are indicated in (A), and average of the 5 independent experiments was plotted in (B). A student t-test was used to assess statistical significance.
In FIG. 10, entorhinal-hippocampal slices from mice postnatal day 5 or 6 were transected on day in vitro (DIV) 10, and they were incubated with or without PKA and ATP for 8 days. […]

NgR1 = molecular target: T1, NgR1 (Homo sapiens, UniProt Q9BZR6, S281A); experiment: Binding of Nogo-66 fragment (Nogo-GFP) to COS7 cells over-expressing NgR1; conditions: 281S/A mutant NgR1; pre-treatment 30 min (CK2 with ATP, or NEP1-40)
T1 construct: The cDNAs of NgR1 (NM 023004, Nt. 184-1543); expressed in transfected cells; host or cells: COS7
T1 sequence (Q9BZR6 27-447 S281A): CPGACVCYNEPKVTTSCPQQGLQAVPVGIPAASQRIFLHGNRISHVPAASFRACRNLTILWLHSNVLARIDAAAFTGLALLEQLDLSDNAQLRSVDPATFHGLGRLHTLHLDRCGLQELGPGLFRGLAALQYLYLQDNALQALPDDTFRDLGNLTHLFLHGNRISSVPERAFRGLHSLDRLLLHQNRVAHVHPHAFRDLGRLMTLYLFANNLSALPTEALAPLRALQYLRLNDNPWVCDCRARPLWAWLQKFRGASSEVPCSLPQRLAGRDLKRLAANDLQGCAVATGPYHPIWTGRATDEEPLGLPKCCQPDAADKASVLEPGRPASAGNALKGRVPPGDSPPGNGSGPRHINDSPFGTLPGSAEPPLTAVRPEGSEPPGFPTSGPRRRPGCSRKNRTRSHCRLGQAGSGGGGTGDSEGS
Protocol: FIG. 3. CK2 phosphorylates NgR1, and inhibits binding of the myelin-associated proteins to NgR1. (A) Myc-tagged wild type, 281S/A or 281S/D mutant NgR1 were over-expressed in COS7 cells. The over-expressed cells were incubated with either the combination of ATP and CK2, or NEP1-40 for 30 min at 37° C. After washing with PBS, cells were incubated with Hisx6-tagged Nogo-GFP for 3 hours at 4° C. The cells were fixed and immunofluorescence was performed with anti-Myc and anti-GFP antibodies. (B) COS7 cells over-expressing Myc-tagged wild type NgR1 were treated as described in (A). Proteins were extracted and the Myc-tagged NgR1 was immunoprecipitated with anti-Myc antibody. Co-precipitated Hisx6-tagged Nogo-GFP was detected by anti-GFP antibody. (C) Cell surface proteins in NgR1-overexpressing COS7 cells were labelled with biotin. The biotinylated proteins were fractionated and analysed by SDS-PAGE. Biotinylated NgR1-Myc was detected with anti-Myc. antibody. (D) COS7 cells over-expressing either wild type NgR1-Myc or 281S/A mutant NgR1-Myc were incubated with ã-^32P-ATP in the presence or absence of CK2. Myc-tagged proteins were immunoprecipitated and analysed with SDS-PAGE. Proteins were blotted onto a PVDF membrane and the membrane was exposed to X-ray film to detect incorporated ^32P. After autoradiography, the membrane was used for immunoblotting with anti-Myc antibody. (E and F) COS7 cells over-expressing Myc-tagged wild type, 281S/A or 281S/D mutant NgR1, were treated as described in (A). After washing with PBS, cells were incubated with either His-tagged OMgp (E) or HA-tagged MAG (F) for 3 hours at 4° C. […]
After treatment with or without CK2, COS7 cells over-expressing wild type or mutant NgR were incubated with Hisx6 tagged Nogo-GFP (10 μg/ml), HA-MAG (50 μg/ml) or Hisx6 tagged OMgp (10 μg/ml) in PBS for 3 hours at 4° C. […] Biotinylated proteins were precipitated with streptavidin beads and were analysed by SDS-PAGE. Each sample fractionated from 5×10^6 cells was analysed by SDS-PAGE. […]

Row | binding of the Nogo-66 fragment, immunofluorescence (NgR1) | Compound | location of Dil [1]
1 | – | Nc1ncnc2c1ncn2[C@@H]1O[C@H](COP(=O)(O)OP(=O)(O)OP(=O)(O)O)[C@@H](O)[C@H]1O [ATP] | location of Dil was limited in the entorhinal side of the transection
2 | inhibited binding | NEP1-40: a competitive inhibitor of Nogo-66 binding to NgR1 (MEDLDQSPLVSSSDSPPRPQPAFKYQFVREPEDEEEEEEE; Nogo-66 residues 1-40; UniProt Q9NQC3 1-40, looked up, fragment) [reference compound] | –
